Experimental data published in paper PMC4243055 (Cell, 2014).
pKi: −log10 of the molar value.

Target: T1, Cdc25 phosphatase (CnCdc25) (Cryptococcus neoformans, UniProt J9VTJ5)
T1 sequence (J9VTJ5 442-662): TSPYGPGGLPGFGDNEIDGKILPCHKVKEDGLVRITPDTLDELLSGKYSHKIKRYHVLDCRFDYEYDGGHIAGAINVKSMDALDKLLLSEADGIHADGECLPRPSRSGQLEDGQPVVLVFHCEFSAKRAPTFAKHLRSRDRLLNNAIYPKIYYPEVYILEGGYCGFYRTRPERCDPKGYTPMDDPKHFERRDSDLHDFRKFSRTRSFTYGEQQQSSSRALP
Experiment: in vitro phosphatase assay with OMFP substrate, Michaelis-Menten kinetics
Format: biochemical

- pKi: ~3.60
Compound: O=C1C(NCCN2CCOCC2)=C(Cl)C(=O)c2ncccc21 [NSC 663284, 7-Chloro-6-(2-morpholin-4-ylethylamino)-quinoline-5,8-dione]
